# Source: ChEMBL document CHEMBL1201862, “PubChem BioAssay data set” (2004)
# Activity calls are given as the source filed them.
# Columns and labels:
# [1] = molecular target: Cytochrome P450 2C19 (Homo sapiens, UniProt P33261); assay: qHTS Assay for Inhibitors and Substrates of Cytochrome P450 2C19. [Related pubchem assays: 410 ]; type: ADME; conditions: read-out: Potency
# [2] = molecular target: Cytochrome P450 2C9 (Homo sapiens, UniProt P11712); conditions: Potency
# [3] = luciferase reporter signal suppression in cells – H4 neuroglioma cells, luminescence, dose response (AID 1990); type: functional, cell-based
# [4] = Luminescence Cell-Based Dose Response HTS to Identify Inhibitors of 5'UTR Stem-Loop Driven Prion Protein mRNA Translation in H4 Neuroglioblastoma Cells. [Related pubchem assays: 1827 (Project Summary), 1813 (Primary HTS)]; type: functional
# [5] = alpha-synuclein stem-loop luciferase translation blockers – H4 neuroglioma cells, luminescence, confirmation (AID 1988); type: functional, cell-based
# [6] = molecular target: Voltage-dependent T-type calcium channel subunit alpha-1H (Homo sapiens, UniProt O95180); type: functional;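 note: channel activity triggered by adding a high calcium stimulation buffer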
# Chain of Voltage-dependent T-type calcium channel subunit alpha-1H (O95180 whole entry): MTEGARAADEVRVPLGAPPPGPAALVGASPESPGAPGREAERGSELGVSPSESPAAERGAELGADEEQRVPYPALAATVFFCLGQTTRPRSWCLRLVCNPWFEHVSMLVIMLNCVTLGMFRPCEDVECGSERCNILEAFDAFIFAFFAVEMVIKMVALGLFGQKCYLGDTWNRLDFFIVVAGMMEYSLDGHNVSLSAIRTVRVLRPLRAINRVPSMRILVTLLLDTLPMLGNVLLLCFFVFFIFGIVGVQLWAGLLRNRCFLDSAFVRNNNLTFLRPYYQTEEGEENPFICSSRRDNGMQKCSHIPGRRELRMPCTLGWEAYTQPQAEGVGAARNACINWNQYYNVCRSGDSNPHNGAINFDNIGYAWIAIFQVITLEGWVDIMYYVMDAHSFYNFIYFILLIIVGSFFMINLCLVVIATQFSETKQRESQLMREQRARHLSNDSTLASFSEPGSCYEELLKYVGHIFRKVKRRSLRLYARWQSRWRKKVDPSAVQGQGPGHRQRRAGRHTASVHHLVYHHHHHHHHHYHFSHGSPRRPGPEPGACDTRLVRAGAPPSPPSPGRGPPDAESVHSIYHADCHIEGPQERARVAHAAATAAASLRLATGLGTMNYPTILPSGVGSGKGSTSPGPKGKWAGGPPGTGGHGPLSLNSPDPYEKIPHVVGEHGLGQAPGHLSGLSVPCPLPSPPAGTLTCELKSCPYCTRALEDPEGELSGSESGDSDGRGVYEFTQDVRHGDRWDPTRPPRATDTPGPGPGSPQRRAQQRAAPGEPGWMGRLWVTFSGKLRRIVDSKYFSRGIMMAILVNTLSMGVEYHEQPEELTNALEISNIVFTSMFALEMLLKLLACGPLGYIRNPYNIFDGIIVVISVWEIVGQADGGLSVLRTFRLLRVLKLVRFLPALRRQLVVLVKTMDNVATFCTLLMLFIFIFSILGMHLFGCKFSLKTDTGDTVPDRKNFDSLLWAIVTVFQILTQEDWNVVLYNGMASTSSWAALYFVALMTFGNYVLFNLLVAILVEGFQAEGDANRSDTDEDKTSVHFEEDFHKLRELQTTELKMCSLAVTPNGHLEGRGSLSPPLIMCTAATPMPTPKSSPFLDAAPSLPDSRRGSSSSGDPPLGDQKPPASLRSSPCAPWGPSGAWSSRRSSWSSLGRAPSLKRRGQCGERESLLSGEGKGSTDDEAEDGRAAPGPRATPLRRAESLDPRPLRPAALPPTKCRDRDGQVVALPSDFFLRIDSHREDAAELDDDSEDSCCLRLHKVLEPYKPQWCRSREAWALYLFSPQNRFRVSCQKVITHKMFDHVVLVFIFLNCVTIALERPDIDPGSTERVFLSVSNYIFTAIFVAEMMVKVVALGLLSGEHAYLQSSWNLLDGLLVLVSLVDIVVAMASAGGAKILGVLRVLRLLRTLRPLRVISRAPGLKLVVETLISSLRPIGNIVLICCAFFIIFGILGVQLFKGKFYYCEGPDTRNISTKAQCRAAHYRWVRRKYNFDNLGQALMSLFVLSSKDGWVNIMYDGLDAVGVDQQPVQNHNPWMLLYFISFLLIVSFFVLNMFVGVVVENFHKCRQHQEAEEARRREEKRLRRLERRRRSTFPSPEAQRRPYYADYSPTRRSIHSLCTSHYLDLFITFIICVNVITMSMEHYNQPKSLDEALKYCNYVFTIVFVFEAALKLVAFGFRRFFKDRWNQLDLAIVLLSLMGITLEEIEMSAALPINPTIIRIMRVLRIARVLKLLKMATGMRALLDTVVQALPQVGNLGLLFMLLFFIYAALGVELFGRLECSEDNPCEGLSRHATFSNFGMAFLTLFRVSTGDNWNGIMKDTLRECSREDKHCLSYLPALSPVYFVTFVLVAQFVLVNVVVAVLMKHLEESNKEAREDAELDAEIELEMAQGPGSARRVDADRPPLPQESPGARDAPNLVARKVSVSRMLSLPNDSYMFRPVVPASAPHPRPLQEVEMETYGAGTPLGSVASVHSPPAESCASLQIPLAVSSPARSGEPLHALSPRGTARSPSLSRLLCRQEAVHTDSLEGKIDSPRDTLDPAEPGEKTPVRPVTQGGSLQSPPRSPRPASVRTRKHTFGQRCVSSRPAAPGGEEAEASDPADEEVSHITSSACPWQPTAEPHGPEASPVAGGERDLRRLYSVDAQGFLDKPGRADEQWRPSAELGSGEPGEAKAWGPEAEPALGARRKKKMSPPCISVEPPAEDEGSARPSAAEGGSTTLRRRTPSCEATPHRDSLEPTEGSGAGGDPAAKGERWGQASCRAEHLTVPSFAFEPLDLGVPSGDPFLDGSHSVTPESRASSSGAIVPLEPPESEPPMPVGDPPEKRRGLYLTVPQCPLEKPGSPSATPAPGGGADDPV
# [7] = molecular target: T1, Neuropeptides B/W receptor type 1 (Homo sapiens, UniProt P48145); assay: Fluorescence-based dose response cell-based high throughput screening assay to identify antagonists of the G-protein coupled receptor 7 (GPR7). [Related pubchem assays: 1952 (Screening assay (GPR7 antagonists).), 1880 (Summary AID.)]; type: functional
# T1 sequence (P48145 whole entry): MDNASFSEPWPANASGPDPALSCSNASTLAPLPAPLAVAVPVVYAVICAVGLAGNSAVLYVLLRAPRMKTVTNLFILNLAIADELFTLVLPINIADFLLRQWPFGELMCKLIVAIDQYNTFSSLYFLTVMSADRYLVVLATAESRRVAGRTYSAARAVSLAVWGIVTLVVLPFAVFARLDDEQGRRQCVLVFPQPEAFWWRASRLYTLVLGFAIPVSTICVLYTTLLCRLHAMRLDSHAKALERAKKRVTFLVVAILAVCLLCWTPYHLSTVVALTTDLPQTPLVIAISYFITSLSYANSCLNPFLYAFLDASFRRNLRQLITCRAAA
# [8] = molecular target: T2, Melanin-concentrating hormone receptor 1 (Homo sapiens, UniProt Q99705); assay: Fluorescence-based counterscreen for antagonists of the G-protein coupled receptor 7 (GPR7): cell-based high throughput dose response assay to identify antagonists of the melanin-concentrating hormone receptor 1 (MCHR1).; type: functional
# T2 sequence (Q99705 whole entry): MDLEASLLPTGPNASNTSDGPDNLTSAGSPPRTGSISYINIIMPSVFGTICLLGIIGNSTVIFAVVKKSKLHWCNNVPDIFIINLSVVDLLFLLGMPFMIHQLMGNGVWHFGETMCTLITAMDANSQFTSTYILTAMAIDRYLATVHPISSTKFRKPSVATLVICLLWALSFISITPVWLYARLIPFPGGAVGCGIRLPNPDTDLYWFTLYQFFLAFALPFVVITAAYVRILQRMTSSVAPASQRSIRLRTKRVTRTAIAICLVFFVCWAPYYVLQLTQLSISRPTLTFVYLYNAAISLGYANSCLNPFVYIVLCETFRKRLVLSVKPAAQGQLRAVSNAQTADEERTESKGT
# [9] = molecular target: X-box-binding protein 1 (Homo sapiens, UniProt P17861); type: functional, Cricetulus griseus;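 note: confirmatory dose-response counter-screen serving a CHOP assay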
# Chain of X-box-binding protein 1 (P17861 whole entry): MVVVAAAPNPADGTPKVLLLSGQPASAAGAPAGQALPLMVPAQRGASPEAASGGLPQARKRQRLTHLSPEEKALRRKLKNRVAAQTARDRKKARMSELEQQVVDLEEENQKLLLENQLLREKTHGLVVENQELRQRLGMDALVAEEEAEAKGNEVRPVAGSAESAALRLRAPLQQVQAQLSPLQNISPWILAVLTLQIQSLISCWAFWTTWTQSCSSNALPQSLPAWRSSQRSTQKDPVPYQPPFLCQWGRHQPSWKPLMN
# [10] = molecular target: Beta-2 adrenergic receptor (Homo sapiens, UniProt P07550); assay: ADRB2 activation measured by internalization – cell-based, FAP fluorogen, flow cytometry, cherry pick 1, dose response (AID 588763); type: functional
# [11] = molecular target: Tumor necrosis factor (Homo sapiens, UniProt P01375); assay: analog potency on TNFa NF-kB signaling – cell-based, revised, SAR follow-up (AID 2337); type: functional
# [12] = molecular target: T3, Nucleotide-binding oligomerization domain-containing protein 1 (Homo sapiens, UniProt Q9Y239); assay: blockers of NOD1 pathway activity – revised, SAR follow-up (AID 2333); type: functional
# T3 sequence (Q9Y239 whole entry): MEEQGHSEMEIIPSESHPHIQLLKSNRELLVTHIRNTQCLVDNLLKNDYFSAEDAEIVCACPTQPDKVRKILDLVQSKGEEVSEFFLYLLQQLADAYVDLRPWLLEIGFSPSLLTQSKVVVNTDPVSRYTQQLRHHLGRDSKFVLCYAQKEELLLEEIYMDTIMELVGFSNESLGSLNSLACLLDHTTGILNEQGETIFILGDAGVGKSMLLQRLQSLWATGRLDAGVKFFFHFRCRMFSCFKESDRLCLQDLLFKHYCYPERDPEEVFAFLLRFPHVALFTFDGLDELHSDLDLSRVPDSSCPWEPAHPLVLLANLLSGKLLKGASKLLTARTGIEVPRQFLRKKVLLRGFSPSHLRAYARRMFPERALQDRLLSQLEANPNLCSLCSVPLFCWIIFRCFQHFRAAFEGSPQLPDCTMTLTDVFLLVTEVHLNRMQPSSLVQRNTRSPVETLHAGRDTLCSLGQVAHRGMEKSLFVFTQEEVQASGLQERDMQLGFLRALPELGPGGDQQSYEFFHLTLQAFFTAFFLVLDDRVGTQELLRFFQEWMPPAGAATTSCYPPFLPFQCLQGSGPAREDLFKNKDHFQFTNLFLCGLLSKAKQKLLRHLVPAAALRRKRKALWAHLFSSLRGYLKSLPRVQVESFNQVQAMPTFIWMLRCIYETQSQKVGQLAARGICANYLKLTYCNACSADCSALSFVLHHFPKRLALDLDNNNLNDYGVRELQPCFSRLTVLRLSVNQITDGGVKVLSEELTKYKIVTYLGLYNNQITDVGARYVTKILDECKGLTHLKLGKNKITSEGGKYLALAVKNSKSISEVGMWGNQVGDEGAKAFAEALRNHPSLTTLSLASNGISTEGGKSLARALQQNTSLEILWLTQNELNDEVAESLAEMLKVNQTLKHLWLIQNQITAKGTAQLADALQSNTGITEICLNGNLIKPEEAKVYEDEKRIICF
# [13] = molecular target: Nucleotide-binding oligomerization domain-containing protein 2 (Homo sapiens, UniProt Q9HC29); assay: PubChem AID 2334; type: functional
# Chain of Nucleotide-binding oligomerization domain-containing protein 2 (Q9HC29 whole entry, the tested form may be a part): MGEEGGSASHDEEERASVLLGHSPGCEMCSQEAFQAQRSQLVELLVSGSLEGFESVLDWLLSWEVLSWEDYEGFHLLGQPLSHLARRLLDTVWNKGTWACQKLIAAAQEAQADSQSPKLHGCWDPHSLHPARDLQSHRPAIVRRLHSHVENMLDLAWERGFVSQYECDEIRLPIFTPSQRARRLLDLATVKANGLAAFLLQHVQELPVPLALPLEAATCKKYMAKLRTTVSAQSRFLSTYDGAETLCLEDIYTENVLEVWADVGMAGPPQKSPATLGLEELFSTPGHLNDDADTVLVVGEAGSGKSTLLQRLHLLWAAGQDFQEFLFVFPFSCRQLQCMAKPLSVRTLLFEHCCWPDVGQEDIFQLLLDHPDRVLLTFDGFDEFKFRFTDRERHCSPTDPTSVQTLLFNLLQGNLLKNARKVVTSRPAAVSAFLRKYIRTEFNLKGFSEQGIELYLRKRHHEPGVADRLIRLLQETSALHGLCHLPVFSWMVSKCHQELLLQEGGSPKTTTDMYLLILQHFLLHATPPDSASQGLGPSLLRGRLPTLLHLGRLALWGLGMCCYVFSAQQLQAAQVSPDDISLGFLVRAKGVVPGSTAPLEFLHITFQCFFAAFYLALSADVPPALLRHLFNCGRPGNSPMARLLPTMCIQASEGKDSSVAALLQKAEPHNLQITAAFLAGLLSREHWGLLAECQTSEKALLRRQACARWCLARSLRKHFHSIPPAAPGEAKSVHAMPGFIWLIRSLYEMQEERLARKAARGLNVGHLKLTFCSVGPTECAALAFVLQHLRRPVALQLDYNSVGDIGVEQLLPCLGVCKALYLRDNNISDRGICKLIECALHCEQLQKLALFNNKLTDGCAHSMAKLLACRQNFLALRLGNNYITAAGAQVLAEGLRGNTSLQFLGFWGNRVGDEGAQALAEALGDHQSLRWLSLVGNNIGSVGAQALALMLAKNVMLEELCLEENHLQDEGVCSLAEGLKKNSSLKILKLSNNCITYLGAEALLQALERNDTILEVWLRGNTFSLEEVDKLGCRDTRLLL
# [14] = tested on: HEK293; assay: cells; conditions: Homo sapiens;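 note: cells exposed to compound for 14 hours overnight before viability readout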
# [15] = molecular target: T2, Melanin-concentrating hormone receptor 1; assay: Late-stage fluorescence-based counterscreen for antagonists of the G-protein coupled receptor 7 (GPR7): cell-based dose response assay to identify antagonists of the melanin-concentrating hormone receptor 1 (MCHR1). [Related pubchem assays (depositor defined):AID1861, AID1880, AID1952, AID2148, AID2251, AID2257, AID485339]; type: functional
# [16] = molecular target: G-protein coupled receptor 35 (Homo sapiens, UniProt Q9HC97); assay: inhibition of zaprinast-stimulated GPR35 beta-arrestin translocation – imaging, U2OS, beta-arrestin-GFP, zaprinast agonist, primary screen (AID 2058); type: functional;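 note: antagonist potency meaning inhibition of agonist-induced arrestin redistribution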
# Chain of G-protein coupled receptor 35 (Q9HC97 whole entry): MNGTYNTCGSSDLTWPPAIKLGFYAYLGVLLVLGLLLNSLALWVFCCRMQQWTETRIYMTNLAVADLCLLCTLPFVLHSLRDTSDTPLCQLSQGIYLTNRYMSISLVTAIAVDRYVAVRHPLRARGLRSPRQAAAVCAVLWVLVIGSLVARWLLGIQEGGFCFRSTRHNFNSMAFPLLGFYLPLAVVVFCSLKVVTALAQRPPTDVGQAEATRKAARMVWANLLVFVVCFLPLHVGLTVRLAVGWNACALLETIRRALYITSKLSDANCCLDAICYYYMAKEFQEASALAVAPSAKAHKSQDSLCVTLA
# [17] = molecular target: T4, Alkaline phosphatase, tissue-nonspecific isozyme (Homo sapiens, UniProt P05186)
# T4 sequence (P05186 whole entry): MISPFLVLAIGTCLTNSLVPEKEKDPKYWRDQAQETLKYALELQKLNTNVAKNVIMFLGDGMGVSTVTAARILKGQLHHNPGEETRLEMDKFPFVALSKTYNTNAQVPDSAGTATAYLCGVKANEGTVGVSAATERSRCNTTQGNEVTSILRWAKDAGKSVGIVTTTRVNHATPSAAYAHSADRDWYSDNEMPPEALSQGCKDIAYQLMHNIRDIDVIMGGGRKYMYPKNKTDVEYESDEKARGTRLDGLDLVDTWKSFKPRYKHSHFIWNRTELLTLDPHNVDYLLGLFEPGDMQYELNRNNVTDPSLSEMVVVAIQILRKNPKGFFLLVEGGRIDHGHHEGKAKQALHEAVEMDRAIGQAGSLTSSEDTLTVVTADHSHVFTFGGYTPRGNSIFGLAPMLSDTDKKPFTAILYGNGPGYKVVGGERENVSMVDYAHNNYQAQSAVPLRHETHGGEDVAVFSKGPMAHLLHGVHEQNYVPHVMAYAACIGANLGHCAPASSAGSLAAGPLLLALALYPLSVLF
# [18] = HPDE-C7 pancreatic duct cell viability loss – fluorescence, HTS (AID 430); type: functional, cell-based; conditions: Homo sapiens
# [19] = viability loss of HPDE-C7K cells – cell-based, fluorescence, HTS, primary screen (AID 431); type: functional; conditions: Homo sapiens
# [20] = molecular target: T5, Replicative DNA helicase DnaB (Mycobacterium tuberculosis, UniProt P9WMR3); assay: DnaB intein splicing inhibitors, dose response, biochemical, cell-free fluorescence (AID 449749); type: functional
# T5 sequence (P9WMR3 whole entry): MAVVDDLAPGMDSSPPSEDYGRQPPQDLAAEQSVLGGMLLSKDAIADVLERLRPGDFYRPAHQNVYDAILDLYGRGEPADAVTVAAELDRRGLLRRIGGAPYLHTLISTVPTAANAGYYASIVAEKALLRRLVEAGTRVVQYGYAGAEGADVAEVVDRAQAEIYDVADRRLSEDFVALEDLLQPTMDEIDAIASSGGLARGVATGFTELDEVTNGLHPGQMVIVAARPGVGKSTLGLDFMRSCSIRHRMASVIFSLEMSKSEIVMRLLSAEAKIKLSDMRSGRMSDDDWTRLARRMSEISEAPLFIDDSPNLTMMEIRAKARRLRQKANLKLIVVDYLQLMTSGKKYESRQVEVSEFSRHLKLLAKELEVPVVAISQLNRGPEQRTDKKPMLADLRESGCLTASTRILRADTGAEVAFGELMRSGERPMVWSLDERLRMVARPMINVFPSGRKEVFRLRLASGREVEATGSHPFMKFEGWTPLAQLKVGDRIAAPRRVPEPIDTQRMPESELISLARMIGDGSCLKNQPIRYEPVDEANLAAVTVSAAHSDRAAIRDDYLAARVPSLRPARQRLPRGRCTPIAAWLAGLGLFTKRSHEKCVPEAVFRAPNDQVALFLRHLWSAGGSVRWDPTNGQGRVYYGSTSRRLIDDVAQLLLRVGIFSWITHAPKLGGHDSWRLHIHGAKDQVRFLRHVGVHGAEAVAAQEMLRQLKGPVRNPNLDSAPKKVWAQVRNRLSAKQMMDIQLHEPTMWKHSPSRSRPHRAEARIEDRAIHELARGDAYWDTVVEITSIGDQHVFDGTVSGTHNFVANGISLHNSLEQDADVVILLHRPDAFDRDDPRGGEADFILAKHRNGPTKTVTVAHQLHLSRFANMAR
# [21] = molecular target: Heat shock protein HSP 90-alpha (Homo sapiens, UniProt P07900); type: functional, organism-based
# [22] = molecular target: T6, Protein RecA (Mycobacterium tuberculosis, UniProt P9WHJ3); assay: Fluorescence Cell-Free Homogeneous Dose Retest to Identify Inhibitors of RecA-Intein Splicing Activity. [Related pubchem assays (depositor defined):AID2097, AID2223, AID489010, AID492950]; type: functional
# T6 sequence (P9WHJ3 whole entry): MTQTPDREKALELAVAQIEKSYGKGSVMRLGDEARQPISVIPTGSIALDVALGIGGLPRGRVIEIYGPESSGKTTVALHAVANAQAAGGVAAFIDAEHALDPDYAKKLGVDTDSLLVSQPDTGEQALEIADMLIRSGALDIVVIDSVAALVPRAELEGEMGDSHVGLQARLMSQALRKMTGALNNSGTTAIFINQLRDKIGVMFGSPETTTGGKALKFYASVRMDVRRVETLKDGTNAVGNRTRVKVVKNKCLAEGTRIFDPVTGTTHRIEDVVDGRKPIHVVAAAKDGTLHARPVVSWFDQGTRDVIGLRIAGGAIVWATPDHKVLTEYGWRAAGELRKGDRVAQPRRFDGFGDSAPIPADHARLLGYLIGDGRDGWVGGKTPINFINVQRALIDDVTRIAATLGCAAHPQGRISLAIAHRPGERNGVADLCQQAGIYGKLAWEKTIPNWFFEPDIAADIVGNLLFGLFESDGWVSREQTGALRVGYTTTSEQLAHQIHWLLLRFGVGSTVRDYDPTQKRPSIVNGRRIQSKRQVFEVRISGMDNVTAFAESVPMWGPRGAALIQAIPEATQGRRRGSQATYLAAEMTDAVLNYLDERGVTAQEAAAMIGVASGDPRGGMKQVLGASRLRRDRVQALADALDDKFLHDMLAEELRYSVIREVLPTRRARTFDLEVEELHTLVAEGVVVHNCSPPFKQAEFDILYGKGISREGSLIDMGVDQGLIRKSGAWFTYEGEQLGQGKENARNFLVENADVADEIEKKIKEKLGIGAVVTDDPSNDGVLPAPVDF
# [23] = glucagon-like peptide-1 release potency in STC-1, concentration-response, half-maximal inhibitory concentration in the STC-1 line (AID 1117345); type: functional, cell-based
# [24] = Potency on glucagon-like peptide 1 release, dose-response in NCI-H716 cell line, half maximal inhibitory concentration (AID 1117344); type: functional, cell-based
# [25] = molecular target: Bcl-2-like protein 10 (Homo sapiens, UniProt Q9HD36); assay: Bcl-B/TR3 peptide binding disruption – biochemical, fluorescence polarization, FITC-TR3 peptide, selectivity assay for Bfl-1 inhibitor project, primary screen (AID 748);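 note: fluorescence polarization from a fluorescein-labelled TR3 peptide binding purified Bcl-B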
# Chain of Bcl-2-like protein 10 (Q9HD36 whole entry): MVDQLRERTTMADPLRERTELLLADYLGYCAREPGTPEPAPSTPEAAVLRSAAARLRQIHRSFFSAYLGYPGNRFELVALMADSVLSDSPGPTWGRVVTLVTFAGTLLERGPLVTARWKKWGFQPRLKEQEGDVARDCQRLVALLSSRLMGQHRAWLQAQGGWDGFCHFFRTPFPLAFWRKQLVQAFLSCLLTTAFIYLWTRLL
# Chain of Cytochrome P450 2C9 (P11712 whole entry): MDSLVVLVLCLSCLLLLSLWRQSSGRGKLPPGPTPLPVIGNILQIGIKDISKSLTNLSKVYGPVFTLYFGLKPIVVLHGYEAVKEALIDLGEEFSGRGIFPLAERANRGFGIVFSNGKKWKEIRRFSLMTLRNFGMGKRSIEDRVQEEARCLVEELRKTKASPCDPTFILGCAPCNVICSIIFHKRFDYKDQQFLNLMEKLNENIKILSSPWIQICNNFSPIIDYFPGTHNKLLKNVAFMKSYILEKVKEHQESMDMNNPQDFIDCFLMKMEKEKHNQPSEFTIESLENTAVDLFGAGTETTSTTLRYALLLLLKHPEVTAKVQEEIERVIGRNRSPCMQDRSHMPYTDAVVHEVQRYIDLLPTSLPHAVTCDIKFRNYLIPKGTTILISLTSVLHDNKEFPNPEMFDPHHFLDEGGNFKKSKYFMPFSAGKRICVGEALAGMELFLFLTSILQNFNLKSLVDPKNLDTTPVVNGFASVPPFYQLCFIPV
compound,measurement,setting,value
CCCCCCCCCCCCCCCCOC[C@@H](COCC(F)(F)F)OP(=O)(O)OCO,AC50,[1],0.002 µM (inconclusive)
same,AC50,[2],39.8 µM (inconclusive)
CCc1nnc(NC(=O)CSc2nnc(C3CCCCC3)n2-c2cccc(Cl)c2)s1,EC50,[3],> 120 µM (not active)
same,EC50,[4],> 120 µM (not active)
same,EC50,[5],> 120 µM (not active)
same,EC50,[6],7.01 µM (active)
Cc1ccc(C(=O)N2CCCCC2)cc1S(=O)(=O)N1CCCCCC1,IC50,[7],> 43.8 µM (not active)
same,IC50,[8],> 43.8 µM (not active)
COc1ccc(OCC(=O)Nc2ccc3c(c2)C(=O)NC3=O)cc1,IC50,[7],> 43.8 µM (not active)
same,IC50,[8],> 43.8 µM (not active)
CCN(CCO)c1ncnc2c1sc1nc(CC(C)C)c3c(c12)CC(C)(C)OC3,Absolute IC50 (XBP1),[9],10 µM
same,EC50,[10],0.0454 µM (active)
Cc1ccc(O)c(N=Cc2cc(Cc3ccccc3)cc([N+](=O)[O-])c2O)c1,IC50,[11],> 20 µM (inactive)
same,IC50,[12],> 20 µM (inactive)
same,IC50,[13],> 20 µM (inactive)
same,IC50,[14],> 20 µM (inactive)
COc1ccc(Oc2c(/C=N/O)cnn(-c3ccc(C(C)C)cc3)c2=O)cc1,IC50,[15],> 20 µM (inactive)
CN1C=CC2=C(C#N)C(N)C(C#N)(C#N)C(c3ccccc3)C2C1 (stereo not drawn),IC50,[16],1.01 µM (active)
Clc1ccc(CSC(Cn2ccnc2)c2ccc(Cl)cc2Cl)cc1 (stereo not drawn) [SULCONAZOLE NITRATE],EC50,[17],60.3 µM (not active)
same,EC50,[18],7.1 µM (active)
same,EC50,[19],8.21 µM (active)
same,AC50,[20],3.52 µM (active)
same,AC50,[21],0.294 µM (active)
same,EC50,[22],9.78 µM (active)
same,IC50,[23],> 40 µM (inactive)
same,IC50,[24],21 µM (inactive)
Cc1ccc(NC(=O)Nc2cccs2)c(Cl)c1,IC50,[25],> 100 µM (inactive)
Cc1cc(C)c(NC(=O)c2cc3c(nc4sccn43)s2)c(C)c1,IC50,[25],> 100 µM (inactive)
